# Experiment: Kinetics of dissolution at 3 g/l and at 25° C. in water (adapalene solubilized, HPLC; pH of the solution at the end)
# Format: physicochemical
# Method: b) Kinetics of Dissolution at 3 g/l and at 25° C.
# The chromatographic conditions and the concentrations of the control solutions are the same as those of the assay.
# • Stirring: 15-position bench • Thermostated bath: 25° C. +/−2° C. verified on Prolabo PR 531 probe • HPLC Waters 2690-Detector 2487/2996 • Weighing out: Sartorius A200 balance • Dilutions: Eppendorf Research 1000, Eppendorf Research 5000, Gilson M1000 micropipette • Ultrapure water station: ELGA Operating conditions:
# A test sample equivalent to 150 mg of Adapalene is introduced into a 100 ml Erlenmeyer flask. 50 ml of water are added. The mixture is stirred magnetically at 400 rpm or position 4 in a waterbath at 25° C. +/−2° C. A 2 ml sample is withdrawn at 15, 30, 60, 120 and 1140 minutes, while stirring magnetically. These withdrawn samples are filtered through 0.45 μm Gelman GHP Acrodisc polypropylene filters. The solution must be clear. The withdrawn samples are diluted by a factor “a” in the mobile phase, making it possible to have an Adapalene peak of surface area included between the surface areas of Control 1 and Control 5.
# 10 μl of each control solution are injected. A linear regression of the surface areas of the Adapalene peaks relative to the concentrations is performed.
# 10 μl of the solution to be examined are injected.
# The area of the Adapalene peak in each solution to be examined is measured.
# The concentration X in μg/ml is deduced therefrom according to the regression line of the controls.
# The concentration in μg of Adapalene solubilized per ml is calculated with the formula: [Adapalene] in μg/ml=X×a
# The variation in the amount dissolved in μg/ml as a function of time is represented on a graph.
# At the end of dissolution, the appearance is immediately noted and the pH of the solution immediately measured.
smiles,measurement,setting,value
"COc1ccc(-c2ccc3cc(C(=O)O)ccc3c2)cc1C12CC3CC(CC(C3)C1)C2 [Adapalene alone, 6-(3-(1-adamantyl)-4-methoxyphenyl)-2-naphthoic acid]","pH of dissolution, 15 minutes",15 minutes,(5.7)
same,"pH of dissolution, 7 days",7 days,(5.7)
same,"Dissolution, 15 minutes","maturation temperature 85° C., 15 minutes",0 µg/mL
same,"Dissolution, 7 days","maturation temperature 85° C., 7 days",0 µg/mL
